Experimental data reported in US20220256821A1, “ZEBRAFISH DELETION AND COMPOUND MUTANTS AND USES THEREOF” (The General Hospital Corporation, priority 2019, published 2022).

Tests used:
Assay type in all cases: in vivo, human
[1] = test system: OVCAR-5 (EPCAM+) cancer cells; test: BiTE therapy of engrafted tumor in zebrafish; details: rag2null/null; Il2rga-/- zebrafish, co-administered with CD8+ T cells after 7 days of engraftment
Description: (§1) To investigate if the rag2^null/null; Il2rga−/− animals can be used in the context of evaluating BiTE therapy efficiency, GFP-expressing OVCAR-5 (EPCAM+) cancer cells were first engrafted into mutant zebrafish. Following 7 days of engraftment, CD8+ T cells were co-administered with a control EPCAM antibody, a non-specific CD19 targeting BiTE (blinatumomab), or an EPCAM targeting BiTE (solitomab). […] In a similar experiment, animals engrafted with CD19-expressing leukemia cell line (K562-CD19) cells were killed off by coadministration of CD8+ T cells and blinatumomab (FIG. 4A-FIG. 4F).
(§2) Human cancer cells were grown to 90% confluence in a T75 cell culture flask, trypsinized, counted and resuspended at 2.5×10^7 cells/ml in Matrigel. Clondronate liposomes were added to the injection mix to inhibit early macrophage ingestion of engrafted cells over the first 7 days. […] Human CD8+ T cells, CMV-primed T cells and Car T cells were grown in 24 well plate at a density of 1×10^6 cells/ml, harvested, counted and resuspended at 5×10^7 cells/ml in T cell media. […] Cancer cell engraftment was assessed using epifluorescence whole animal microscopy (Olympus MVX10), with average GFP intensity measured using ImageJ. Growth was measured in relation to GFP intensity observed immediately after IP injection or by individual count of GFP+ cells over time. […]

[2] = test system: CD19-expressing leukemia cell line (K562-CD19); test: BiTE therapy of engrafted leukemia cells in zebrafish; details: rag2null/null; Il2rga-/- zebrafish, coadministration of CD8+ T cells
Description: as §1, §2

[3] = test system: OVCAR-5 (zipCaspase3) cells; test: Live confocal imaging of BiTE-induced apoptosis with zipCaspase 3 reporter in zebrafish; details: administered with T cells, live confocal microscopy
Method: Next, it was investigated whether the rag2^null/null; Il2rga−/− zebrafish are able to be used to directly visualize tumor cell killing at single cell resolution following BiTE therapy in vivo. To do so, OVCAR-5 ovarian cancer cells were engineered to express a zipCaspase 3 construct, where live tumor cells constitutively express mCherry, but express zipGFP only when undergoing apoptosis (FIG. 7A-FIG. 7E).
Imaging of peri-ocular transplanted cells was performed using an inverted LSM 710 confocal microscope. Engrafted zebrafish were anesthetized using […] tricaine and placed into a 12-mm glass-bottom dish for imaging. Serial z-stack imaging was carried out using a 10× objective (NA 0.45). In vivo direct visualization of Car T-cell interaction with tumor cells, cell apoptosis with zipGFP caspase 3 reporter, and visualization of therapy target specificity was carried out by serial z-stack imaging using 405 nm (emission […]), 488 nm (emission=493-586 nm) and 546 nm laser (emission=575-703 nm). Animals were imaged at 6 dpt prior to administration of immunotherapy. […] Quantification of distance between tumor cells and Car T-cells was analysed using distance between surface and spot plugin. Images were manually annotated from Imaris files (n=100 cells per timepoint analyzed from n≥3 animals) and quantified using the Fisher's Exact Test or T-test.

Row | Substance | overall tumor growth [1] | killing of engrafted cells [2] | cell apoptosis quantified in vivo (zipGFP) [3]
1 | blinatumomab | did not alter overall OVCAR-5 tumor growth | killed off | –
2 | solitomab | undergo cell killing and suppress tumor growth | – | significant induction of cell apoptosis
